From EPA's ToxValDB 9.5
“And” between values parts separate entries of the source, which are not always exact repeats. Equal entries are not always repeated.

Test system: Rattus norvegicus
Details: for LD50 / LC50: acute
[1] = reproduction developmental, duration: 41 days, oral, gavage, F, Crj:CD
[2] = reproduction developmental, duration: 41 days, oral, gavage, M, Crj:CD
[3] = reproduction developmental, duration: 10 days, oral, gavage, F, Sprague-Dawley
[4] = subchronic, duration: 13 weeks, oral, diet
[5] = reproduction developmental, inhalation, Wistar
[6] = developmental, oral, gavage, Sprague-Dawley
[7] = reproduction developmental, oral, gavage, F, Sprague-Dawley
[8] = subchronic, oral, gavage, Sprague-Dawley
[9] = reproduction developmental, duration: 32 days, oral, gavage, Sprague-Dawley, generation: F0

COCO [Methoxymethanol]
LD50 (oral, gavage, Crj:CD): 1270 mg/kg
NOAEL (developmental, oral, gavage, Crj:CD): 300 mg/kg-day
LOAEL [1]: 300 mg/kg-day
NOAEL [1]: 60 mg/kg-day
LOAEL [2]: 60 mg/kg-day
NOAEL [2]: 12 mg/kg-day
NOAEL (reproduction developmental, oral, gavage, Crj:CD): 300 mg/kg-day
NOAEL (reproduction developmental, oral, gavage, F, Crj:CD): 60 mg/kg-day
NOAEL (reproduction developmental, oral, gavage, M, Crj:CD): 12 mg/kg-day

CCCCCCCCCCCCCCCCCC(=O)OCCO [2-Hydroxyethyl octadecanoate]
LD50 (oral, gavage, Wistar): > 5000 mg/kg

C=C(C)COc1ccccc1O [2-[(2-methyl-2-propenyl)oxy]phenol]
LD50 (oral, gavage, Sprague-Dawley): 2840 mg/kg and 2940 mg/kg and 3220 mg/kg
NOAEL (reproduction developmental, oral, gavage, Sprague-Dawley): > 720 mg/kg-day

Cc1cc(S(=O)(=O)[O-])c(N=Nc2c([O-])c(C(=O)O)cc3ccccc23)cc1Cl.[Ba+2]
LD50 (oral, gavage): ≥ 5000 mg/kg

CC1COCc2cc3c(cc21)C(C)(C)C(C)C3(C)C (stereo not given)
LOAEL [3]: 150 mg/kg-day
NOAEL [3]: 50 mg/kg-day
NOAEL (reproduction developmental, duration: 10 days, oral, gavage, Sprague-Dawley, generation: F1): 150 mg/kg-day
NOAEL (reproduction developmental, oral, gavage): 20 mg/kg-day
LOAEL [4]: 300 mg/kg-day
NOAEL [4]: 150 mg/kg-day

CC=CC [2-Butene]
LC50 (inhalation, Wistar): > 22900 mg/m3
LOAEL [5]: 11500 mg/m3
NOAEL [5]: 5740 mg/m3

O[B-](c1ccccc1)(c1ccccc1)c1ccccc1.[Na+] [Sodium hydroxytriphenylborate]
LD50 (oral, gavage, Sprague-Dawley): 1240 mg/kg

CC(C)(C)CC(C)(C)N [tert-Octylamine]
LD50 (oral, gavage, CRL:CD BR): 218 mg/kg

CCCCCCCCCCCCCOC(=O)c1ccccc1C(=O)OCCCCCCCCCCCCC [Ditridecyl phthalate]
LD50 (oral, gavage, Sprague-Dawley): > 2000 mg/kg
NOAEL [6]: 250 mg/kg-day
NOAEL [7]: 50 mg/kg-day
NOAEL (reproduction developmental, oral, gavage, M, Sprague-Dawley): 250 mg/kg-day
NOAEL (reproduction developmental, oral, gavage, Sprague-Dawley, generation: F1): 250 mg/kg-day
LOAEL [8]: 50 mg/kg-day
NOAEL [8]: 10 mg/kg-day

CCCCCCCCCCCCOCCCNCCCN [N1-[3-(Dodecyloxy)propyl]-1,3-propanediamine]
LD50 (oral, gavage): 378 mg/kg and 299 mg/kg

Cc1cccc(C#N)c1 [3-Methylbenzonitrile]
LD50 (oral, Sprague-Dawley): 3000 mg/kg

CC/C=C\C#N [(2Z)-2-Pentenenitrile]
LC50 (inhalation, CRL:CD BR): 2820 mg/m3
NOAEL (short-term, duration: 28 days, inhalation, CRL:CD BR): 995 mg/m3
NOAEL (short-term, duration: 28 days, inhalation, F, CRL:CD BR): 9.95 mg/m3
NOAEL (short-term, duration: 28 days, inhalation, M, CRL:CD BR): 9.95 mg/m3

CC(C)CCCCC(=O)O [Isooctanoic acid]
NOAEL [6]: 800 mg/kg-day
NOAEL (reproduction developmental, oral, diet, F, Sprague-Dawley): 7500 ppm
NOAEL (reproduction developmental, oral, diet, Sprague-Dawley, generation: F1): 7500 ppm
NOAEL [7]: 400 mg/kg-day

CCCCCCCCCCCCCl [1-Chlorododecane]
LD50 (oral, gavage, Sprague-Dawley): > 2000 mg/kg
LOAEL [9]: 300 mg/kg-day
NOAEL [9]: 100 mg/kg-day
LOAEL (reproduction developmental, duration: 32 days, oral, gavage, Sprague-Dawley, generation: F1): 1000 mg/kg-day
